Read-outs that look alike come from different tables or passages of the source.
Assays:
Format in all cases: in vivo
[1] = tested on: blackgrass (Alopecurus myosuroides); assay: Test C pre-/postemergence greenhouse test, plant response rating 0-100; settings: Alopecurus myosuroides; for pest or weed control at 62 g/ha: 62 g ai/ha; for pest or weed control at 125 g/ha: 125 g ai/ha; for pest or weed control at 250 g/ha: 250 g ai/ha; for pest or weed control at 500 g/ha: 500 g ai/ha
How it was run: (§1)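 Two application timings: preemergence onto seeded loam/sand soil and postemergence onto plants at the 1–4 leaf stage (2–18 cm) in peat/vermiculite medium. Formulation: non-phytotoxic solvent with surfactant. Read-out: visual control rating, 0–100, at 13–15 days after treatment.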

[2] = tested on: ragweed (common ragweed, Ambrosia elatior); assay: as above; settings: Ambrosia artemisiifolia; for pest or weed control at 62 g/ha: 62 g ai/ha; for pest or weed control at 125 g/ha: 125 g ai/ha; for pest or weed control at 250 g/ha: 250 g ai/ha; for pest or weed control at 500 g/ha: 500 g ai/ha
How it was run: as §1

[3] = tested on: wheat (Triticum aestivum); assay: Test A pre-/postemergence greenhouse herbicide test, visual injury rating 0-100; settings: for plant injury at 500 g/ha: 500 g ai/ha
How it was run: (§2)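 Visual injury versus untreated controls, scored about 10 days after treatment on a 0 to 100 scale (0 = no effect, 100 = complete control). Applications were preemergence directed soil spray plus postemergence spray at one- to two-leaf stage, 2 to 10 cm plants.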

[4] = tested on: pigweed (Amaranthus retroflexus); assay: as above; settings: for pest or weed control at 500 g/ha: 500 g ai/ha
How it was run: as §2

[5] = tested on: barnyardgrass (Echinochloa crus-galli); assay: as above; settings: for pest or weed control at 500 g/ha: 500 g ai/ha
How it was run: as §2

corn (Zea mays) = assay: as above; settings: for plant injury at 500 g/ha: 500 g ai/ha
How it was run: as §2

[6] = tested on: velvetleaf (Abutilon theophrasti); assay: as above; settings: for pest or weed control at 500 g/ha: 500 g ai/ha
How it was run: as §2

[7] = tested on: giant foxtail (Setaria faberii); assay: as above; settings: for pest or weed control at 500 g/ha: 500 g ai/ha
How it was run: as §2

[8] = tested on: morningglory (Ipomoea spp.); assay: as above; settings: for pest or weed control at 500 g/ha: 500 g ai/ha
How it was run: as §2

[9] = tested on: large (Lg) crabgrass (Digitaria sanguinalis); assay: as above; settings: for pest or weed control at 500 g/ha: 500 g ai/ha
How it was run: as §2

[10] = tested on: chickweed (common chickweed, Stellaria media); assay: Test C postemergence greenhouse test, plant response rating 0-100; settings: Stellaria media, post-emergence
How it was run: (§3)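 Plants rated visually 0 (no effect) to 100 (complete control) against untreated controls after 13 to 15 days in the greenhouse, dash indicating no result. Treatment was a postemergence application of formulated chemicals at the 1- to 4-leaf stage (2 to 18 cm), in pots of peat-vermiculite medium.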

wild oat (Avena fatua) = assay: as above; settings: Avena fatua, post-emergence
How it was run: as §3

kochia (Kochia scoparia) = assay: as above; settings: Bassia scoparia, post-emergence
How it was run: as §3

[11] = post-emergence, Postemergence, scale 0 to 100
[12] = pre-emergence, Preemergence, read-out: Plant response rating, Blackgrass
[13] = post-emergence, Postemergence, read-out: Plant response rating (0 to 100), Ragweed
[14] = pre-emergence, Preemergence, read-out: Plant response rating, Ragweed

**Q.** Which pest or weed control at 62 g/ha ([1]; post-emergence, Postemergence, read-out: Plant response rating (0 to 100), Blackgrass) does the source give for `CCOC(OCC)(c1ccccc1)c1c[nH]nc1-c1cc(Cl)cc(Cl)c1` [Compound 14, 3-(3,5-dichlorophenyl)-4-(diethoxyphenylmethyl)-1H-pyrazole] here?
**A.** 0%

**Q.** What about the pest or weed control at 125 g/ha ([1]; post-emergence, Postemergence, scale 0 to 100, read-out: Plant response rating, Blackgrass) of the same compound?
**A.** 0%

**Q.** And the pest or weed control at 250 g/ha [1, 11]?
**A.** 0%

**Q.** And the pest or weed control at 500 g/ha [1, 11]?
**A.** 0%

**Q.** And the pest or weed control at 62 g/ha [1, 12]?
**A.** 50%

**Q.** And the pest or weed control at 125 g/ha [1, 12]?
**A.** 20%

**Q.** And the pest or weed control at 250 g/ha ([1]; pre-emergence, Preemergence)?
**A.** 0%

**Q.** And the pest or weed control at 500 g/ha ([1]; pre-emergence, Preemergence)?
**A.** 30%

**Q.** What about the pest or weed control at 62 g/ha [2, 13] of the same compound?
**A.** 60%

**Q.** What about the pest or weed control at 125 g/ha [2, 13] of the same compound?
**A.** 70%

**Q.** What about the pest or weed control at 250 g/ha [2, 11] of the same compound?
**A.** 75%

**Q.** What about the pest or weed control at 500 g/ha [2, 11] of the same compound?
**A.** 80%

**Q.** What about the pest or weed control at 62 g/ha [2, 14] of the same compound?
**A.** 75%

**Q.** What about the pest or weed control at 125 g/ha [2, 14] of the same compound?
**A.** 100%

**Q.** What about the pest or weed control at 250 g/ha ([2]; pre-emergence, Preemergence) of the same compound?
**A.** 100%

**Q.** And the pest or weed control at 500 g/ha ([2]; pre-emergence, Preemergence)?
**A.** 100%

**Q.** And the “Wheat plant response rating (0 = no effect, 100 = complete control)” value ([3]; Preemergence, 125 g ai/ha)?
**A.** 0

**Q.** What about the plant injury at 125 g/ha ([3]; Triticum aestivum, post-emergence, 240 h, Postemergence, 125 g ai/ha, read-out: Plant response rating (0 to 100 scale), Wheat) of the same compound?
**A.** 0%

**Q.** And the plant injury at 500 g/ha ([3]; Triticum aestivum, post-emergence, 240 h, Postemergence, read-out: Plant response rating (0 to 100 scale), Wheat)?
**A.** 0%

**Q.** What about the plant injury at 500 g/ha ([3]; Triticum aestivum, pre-emergence, 240 h, Preemergence, read-out: Plant response rating (0 to 100 scale), Wheat) of the same compound?
**A.** 0%

**Q.** And the pest or weed control at 125 g/ha ([4]; Amaranthus retroflexus, post-emergence, 240 h, Postemergence, 125 g ai/ha, read-out: Plant response rating (0 to 100 scale), Pigweed)?
**A.** 80%

**Q.** What about the pest or weed control at 500 g/ha ([4]; Amaranthus retroflexus, post-emergence, 240 h, Postemergence, read-out: Plant response rating (0 to 100 scale), Pigweed) of the same compound?
**A.** 90%

**Q.** And the pest or weed control at 500 g/ha ([4]; Amaranthus retroflexus, pre-emergence, 240 h, Preemergence, read-out: Plant response rating (0 to 100 scale), Pigweed)?
**A.** 100%

**Q.** And the “Pigweed plant response rating (0 = no effect, 100 = complete control)” value ([4]; Preemergence, 125 g ai/ha)?
**A.** 70

**Q.** And the pest or weed control at 125 g/ha ([5]; Echinochloa crus-galli, post-emergence, 240 h, Postemergence, 125 g ai/ha, read-out: Plant response rating (0 to 100 scale), Barnyardgrass)?
**A.** 0%

**Q.** And the pest or weed control at 500 g/ha ([5]; Echinochloa crus-galli, post-emergence, 240 h, Postemergence, read-out: Plant response rating (0 to 100 scale), Barnyardgrass)?
**A.** 0%

**Q.** And the pest or weed control at 500 g/ha ([5]; Echinochloa crus-galli, pre-emergence, 240 h, Preemergence, read-out: Plant response rating (0 to 100 scale), Barnyardgrass)?
**A.** 0%

**Q.** And the “Barnyardgrass plant response rating (0 = no effect, 100 = complete control)” value ([5]; Preemergence, 125 g ai/ha)?
**A.** 0

**Q.** What about the “Corn plant response rating (0 = no effect, 100 = complete control)” value (corn (Zea mays); Preemergence, 125 g ai/ha) of the same compound?
**A.** 0

**Q.** What about the plant injury at 125 g/ha (corn (Zea mays); Zea mays, post-emergence, 240 h, Postemergence, 125 g ai/ha, read-out: Plant response rating (0 to 100 scale), Corn) of the same compound?
**A.** 0%

**Q.** And the plant injury at 500 g/ha (corn (Zea mays); Zea mays, post-emergence, 240 h, Postemergence, read-out: Plant response rating (0 to 100 scale), Corn)?
**A.** 0%

**Q.** What about the plant injury at 500 g/ha (corn (Zea mays); Zea mays, pre-emergence, 240 h, Preemergence, read-out: Plant response rating (0 to 100 scale), Corn) of the same compound?
**A.** 0%

**Q.** And the pest or weed control at 125 g/ha ([6]; Abutilon theophrasti, post-emergence, 240 h, Postemergence, 125 g ai/ha, read-out: Plant response rating (0 to 100 scale), Velvetleaf)?
**A.** 80%

**Q.** What about the pest or weed control at 500 g/ha ([6]; Abutilon theophrasti, post-emergence, 240 h, Postemergence, read-out: Plant response rating (0 to 100 scale), Velvetleaf) of the same compound?
**A.** 90%

**Q.** What about the pest or weed control at 500 g/ha ([6]; Abutilon theophrasti, pre-emergence, 240 h, Preemergence, read-out: Plant response rating (0 to 100 scale), Velvetleaf) of the same compound?
**A.** 100%

**Q.** And the “Velvetleaf plant response rating (0 = no effect, 100 = complete control)” value ([6]; Preemergence, 125 g ai/ha)?
**A.** 50

**Q.** What about the “Foxtail, Giant plant response rating (0 = no effect, 100 = complete control)” value ([7]; Preemergence, 125 g ai/ha) of the same compound?
**A.** 0

**Q.** What about the pest or weed control at 125 g/ha ([7]; Setaria faberi, post-emergence, 240 h, Postemergence, 125 g ai/ha, read-out: Plant response rating (0 to 100 scale), Foxtail, Giant) of the same compound?
**A.** 0%

**Q.** What about the pest or weed control at 500 g/ha ([7]; Setaria faberi, post-emergence, 240 h, Postemergence, read-out: Plant response rating (0 to 100 scale), Foxtail, Giant) of the same compound?
**A.** 0%

**Q.** What about the pest or weed control at 500 g/ha ([7]; Setaria faberi, pre-emergence, 240 h, Preemergence, read-out: Plant response rating (0 to 100 scale), Foxtail, Giant) of the same compound?
**A.** 0%

**Q.** What about the pest or weed control at 125 g/ha ([8]; Ipomoea, post-emergence, 240 h, Postemergence, 125 g ai/ha, read-out: Plant response rating (0 to 100 scale), Morningglory) of the same compound?
**A.** 0%

**Q.** What about the pest or weed control at 500 g/ha ([8]; Ipomoea, post-emergence, 240 h, Postemergence, read-out: Plant response rating (0 to 100 scale), Morningglory) of the same compound?
**A.** 0%

**Q.** And the pest or weed control at 500 g/ha ([8]; Ipomoea, pre-emergence, 240 h, Preemergence, read-out: Plant response rating (0 to 100 scale), Morningglory)?
**A.** 0%

**Q.** What about the “Morningglory plant response rating (0 = no effect, 100 = complete control)” value ([8]; Preemergence, 125 g ai/ha) of the same compound?
**A.** 0

**Q.** And the pest or weed control at 125 g/ha ([9]; Digitaria sanguinalis, post-emergence, 240 h, Postemergence, 125 g ai/ha, read-out: Plant response rating (0 to 100 scale), Crabgrass, Large)?
**A.** 0%

**Q.** And the pest or weed control at 500 g/ha ([9]; Digitaria sanguinalis, post-emergence, 240 h, Postemergence, read-out: Plant response rating (0 to 100 scale), Crabgrass, Large)?
**A.** 0%

**Q.** And the pest or weed control at 500 g/ha ([9]; Digitaria sanguinalis, pre-emergence, 240 h, Preemergence, read-out: Plant response rating (0 to 100 scale), Crabgrass, Large)?
**A.** 0%

**Q.** What about the “Crabgrass, Large plant response rating (0 = no effect, 100 = complete control)” value ([9]; Preemergence, 125 g ai/ha) of the same compound?
**A.** 0

**Q.** What about the pest or weed control at 62 g/ha ([10]; 62 g ai/ha) of the same compound?
**A.** 90%

**Q.** What about the pest or weed control at 125 g/ha ([10]; 125 g ai/ha) of the same compound?
**A.** 100%

**Q.** And the pest or weed control at 250 g/ha ([10]; 250 g ai/ha, scale 0 to 100)?
**A.** 100%

**Q.** What about the pest or weed control at 500 g/ha ([10]; 500 g ai/ha, scale 0 to 100) of the same compound?
**A.** 95%

**Q.** And the pest or weed control at 62 g/ha (wild oat (Avena fatua); 62 g ai/ha)?
**A.** 0%

**Q.** And the pest or weed control at 125 g/ha (wild oat (Avena fatua); 125 g ai/ha)?
**A.** 0%

**Q.** And the pest or weed control at 250 g/ha (wild oat (Avena fatua); 250 g ai/ha, scale 0 to 100)?
**A.** 0%

**Q.** What about the pest or weed control at 500 g/ha (wild oat (Avena fatua); 500 g ai/ha, scale 0 to 100) of the same compound?
**A.** 5%

**Q.** And the pest or weed control at 62 g/ha (kochia (Kochia scoparia); 62 g ai/ha)?
**A.** 85%

**Q.** What about the pest or weed control at 125 g/ha (kochia (Kochia scoparia); 125 g ai/ha) of the same compound?
**A.** 90%

**Q.** And the pest or weed control at 250 g/ha (kochia (Kochia scoparia); 250 g ai/ha, scale 0 to 100)?
**A.** 90%

**Q.** And the pest or weed control at 500 g/ha (kochia (Kochia scoparia); 500 g ai/ha, scale 0 to 100)?
**A.** 90%

From US10167262B2, “Herbicidal substituted 3-arylpyrazoles” (FMC CORPORATION, priority 2014, dated 2019)
